{
  "source": "paper PMC6915745",
  "about": "“TRIB3 supports breast cancer stemness by suppressing FOXO1 degradation and enhancing SOX2 transcription” (Nature Communications, 2019)",
  "key": {"[1]": {"test_system": "FOXO1", "settings": "HEPG2 cells, after insulin activation of PI3K-AKT; 12-hr under sera deprivation; ref Matsuzaki et al. (2003, PNAS); cited from earlier work"}, "[2]": {"test_system": "TRIB3-silenced MDA-MB-231 cells", "experiment": "Immunoblot of AKT1/FOXO1/SOX2, TRIB3-silenced MDA-MB-231 cells with AKT1 inhibitor MK2206", "assay_type": "cell-based", "settings": "24 hr", "protocol": "Cycloheximide (CHX; Sigma Aldrich, R750107) was used as a protein synthesis inhibitor to assess the stability of the existing proteins. To assess protein stability, cells were treated with 20 μM CHX and the proteasome inhibitor MG132 (Sigma Aldrich, R750107) at 10 μM or the autophagy inhibitor BAF (Sigma Aldrich, B1793) at 200 nM for the indicated times. Protein expression was assessed via immunoblot analysis with cell lysates (20–60 μg) prepared in RIPA lysis buffer containing protease inhibitors (Roche) using anti-SOX2 (3529), anti-NANOG (4903), anti-OCT4 (2750), anti-KLF4 (4038), anti-c-Myc (13987), anti-FOXO1 (2880), anti-p-FOXO1 (9461), anti-AKT (4685), anti-p-AKT (4060), anti-β-ACTIN (4970), anti-Ubiquitin (3936), or anti-LaminA/C (4777) antibodies from CST; anti-TRIB3 antibody (ab75846) from Abcam; and anti-Trib3 antibody (PA5-15480) from Thermo Fisher Scientific[59]. All antibodies were used at 1:1000 dilution, with the exception of anti-β-Actin antibodies, which were used at 1:2000 dilution. The protein concentrations were determined by BCA Protein Assay Kits (Pierce). […]\nindicated proteins were detected by immunoblotting. […]\nMK2206 for 24 hr. Cell extracts were prepared and the levels of the indicated proteins were detected […]\nlevels of the indicated proteins were detected by immunoblotting. […]\nglucose (HG) for 24 hr was detected by Western blotting. […]"}, "[3]": {"test_system": "TRIB3-silenced MCF7 cells", "experiment": "Immunoblot of AKT1/FOXO1/SOX2, TRIB3-silenced MCF7 cells with AKT1 inhibitor MK2206", "assay_type": "cell-based, human", "settings": "TRIB3-silenced MCF7 cells, 24 h", "from_the_text": "Fig. 6 TRIB3 abrogates the AKT-FOXO1 interaction. a Supervised clustering of MCF7 cells transfected with CTRL-shRNA or TRIB3-shRNA using the log2-transformed values for genes in the FOXO1 upstream pathway, including AMPK, ERK, PI3K, p38, and JNK clustered genes expressed in all samples. Each column represents a separate case. Z-scores from IPA depicting the subnetwork gene expression differences between CTRL-shRNA and TRIB3-shRNA cases. The Z-score heat map depicts the five FOXO1 upstream subnetworks. Each row represents the data for the subnetwork indicated in the right margin. b, c TRIB3 inhibited the activity of AKT1 in BCCs. The indicated stable expression cell extracts were prepared and the levels of the indicated proteins were detected by immunoblotting. d, e The effects of the AKT1 agonist or antagonist for TRIB3-FOXO1-SOX2 axis in BCCs. The indicated cells were treated with the AKT1 agonist SC79 or the antagonist MK2206 for 24 h. […] HMLE cell extracts were IP with an anti-AKT1 Ab and blotted with an anti-TRIB3 or anti-FOXO1 Ab in the presence of the indicated concentration of the TRIB3-GST protein. Data are shown as the mean ± SEM; P > 0.05 was considered not significant (NS); *P < 0.05, **P < 0.01, and ***P < 0.001 compared with the vector or CTRL-shRNA group. Source data are provided as a Source Data file.\nCycloheximide (CHX; Sigma Aldrich, R750107) was used as a protein synthesis inhibitor to assess the stability of the existing proteins. To assess protein stability, cells were treated with 20 μM CHX and the proteasome inhibitor MG132 (Sigma Aldrich, R750107) at 10 μM or the autophagy inhibitor BAF (Sigma Aldrich, B1793) at 200 nM for the indicated times. Protein expression was assessed via immunoblot analysis with cell lysates (20–60 μg) prepared in RIPA lysis buffer containing protease inhibitors (Roche) using anti-SOX2 (3529), anti-NANOG (4903), anti-OCT4 (2750), anti-KLF4 (4038), anti-c-Myc (13987), anti-FOXO1 (2880), anti-p-FOXO1 (9461), anti-AKT (4685), anti-p-AKT (4060), anti-β-ACTIN (4970), anti-Ubiquitin (3936), or anti-LaminA/C (4777) antibodies from CST; anti-TRIB3 antibody (ab75846) from Abcam; and anti-Trib3 antibody (PA5-15480) from Thermo Fisher Scientific[59]. All antibodies were used at 1:1000 dilution, with the exception of anti-β-Actin antibodies, which were used at 1:2000 dilution. The protein concentrations were determined by BCA Protein Assay Kits (Pierce). Proteins were separated by SDS-polyacrylamide gel electrophoresis (PAGE) and transferred to polyvinylidene difluoride membrane."}, "[4]": {"target": "AKT1, endogenous in human cells (human (endogenous in HMLE, MCF7, …, UniProt P31749 1-480))", "sequence (P31749 whole entry)": "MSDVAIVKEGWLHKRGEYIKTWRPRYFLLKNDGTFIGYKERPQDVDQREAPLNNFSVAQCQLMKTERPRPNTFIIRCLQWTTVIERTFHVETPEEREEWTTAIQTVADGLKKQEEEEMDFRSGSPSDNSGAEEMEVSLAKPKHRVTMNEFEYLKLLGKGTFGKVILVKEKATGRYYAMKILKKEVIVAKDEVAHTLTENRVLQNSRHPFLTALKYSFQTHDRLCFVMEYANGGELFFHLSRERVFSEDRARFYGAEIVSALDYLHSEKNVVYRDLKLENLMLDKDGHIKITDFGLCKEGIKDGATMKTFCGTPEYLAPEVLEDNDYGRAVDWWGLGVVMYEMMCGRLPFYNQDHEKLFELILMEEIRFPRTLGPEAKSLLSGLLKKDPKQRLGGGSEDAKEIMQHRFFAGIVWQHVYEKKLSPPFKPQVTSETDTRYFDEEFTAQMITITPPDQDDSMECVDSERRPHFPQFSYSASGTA", "experiment": "cell-based or functional assay"}, "[5]": {"test_system": "AKT1-FOXO1 interaction", "experiment": "Co-IP of AKT1-FOXO1 interaction in HMLE cell extracts with TRIB3-GST protein", "assay_type": "binding, human", "settings": "IP anti-AKT1", "from_the_text": "Fig. 6 TRIB3 abrogates the AKT-FOXO1 interaction. a Supervised clustering of MCF7 cells transfected with CTRL-shRNA or TRIB3-shRNA using the log2-transformed values for genes in the FOXO1 upstream pathway, including AMPK, ERK, PI3K, p38, and JNK clustered genes expressed in all samples. Each column represents a separate case. Z-scores from IPA depicting the subnetwork gene expression differences between CTRL-shRNA and TRIB3-shRNA cases. The Z-score heat map depicts the five FOXO1 upstream subnetworks. Each row represents the data for the subnetwork indicated in the right margin. b, c TRIB3 inhibited the activity of AKT1 in BCCs. The indicated stable expression cell extracts were prepared and the levels of the indicated proteins were detected by immunoblotting. d, e The effects of the AKT1 agonist or antagonist for TRIB3-FOXO1-SOX2 axis in BCCs. The indicated cells were treated with the AKT1 agonist SC79 or the antagonist MK2206 for 24 h. […]\nCell pellets were lysed with coimmunoprecipitation buffer (25 mM Tri-cl (pH 7.4), 150 mM NaCl, 0.5% NP-40, 2.5 mM MgCl, 0.5 mM EDTA, 5% Glycerol), incubated with IP antibodies overnight at 4 °C with shaking, and then incubated with Protein A/G Plus-Agarose (Santa Cruz Biotechnology) for 2 h at 4 °C[15]. Interaction complexes were separated from the beads by boiling for 10 min and then subjected to SDS-PAGE and detected with immunoblotting."}},
  "data": [
    {"molecule": "insulin: insulin activation of the PI3K-AKT signaling pathway", "values": [
      {"measurement": "FOXO1 half-life", "setting": "[1]", "result": "approximately 6 hr"}
    ]},
    {"molecule": "NC1(c2ccc(-c3nc4ccn5c(=O)[nH]nc5c4cc3-c3ccccc3)cc2)CCC1", "note": "[MK2206, reference compound]", "values": [
      {"measurement": "FOXO1 and SOX2 expression", "setting": "[2]", "result": "rescued FOXO1 and SOX2 expression"},
      {"measurement": "activity of AKT1 S473 and FOXO1 S256", "setting": "[2]", "result": "suppressed the activity of AKT1^S473 and FOXO1^S256"},
      {"measurement": "FOXO1 and SOX2 expression", "setting": "[3]", "result": "rescued FOXO1 and SOX2 expression"},
      {"measurement": "activity of AKT1 S473 and FOXO1 S256", "setting": "[3]", "result": "suppressed the activity of AKT1^S473 and FOXO1^S256"}
    ]},
    {"molecule": "Tribbles homolog 3 (TRIB3), endogenous in human breast cancer cells (natural protein, UniProt Q96RU7 1-358, looked up) MRATPLAAPAGSLSRKKRLELDDNLDTERPVQKRARSGPQPRLPPCLLPLSPPTAPDRATAVATASRLGPYVLLEPEEGGRAYQALHCPTGTEYTCKVYPVQEALAVLEPYARLPPHKHVARPTEVLAGTQLLYAFFTRTHGDMHSLVRSRHRIPEPEAAVLFRQMATALAHCHQHGLVLRDLKLCRFVFADRERKKLVLENLEDSCVLTGPDDSLWDKHACPAYVGPEILSSRASYSGKAADVWSLGVALFTMLAGHYPFQDSEPVLLFGKIRRGAYALPAGLSAPARCLVRCLLRREPAERLTATGILLHPWLRQDPMPLAPTRSHLWEAAQVVPDGLGLDEAREEEGDREVVLYG", "values": [
      {"measurement": "half-life of FOXO1 degradation in MCF7 cells treated with Pep2–Ae (Supplementary Fig. 10d)", "setting": "[4]", "result": 36, "unit": "min"}
    ]},
    {"molecule": "TRIB3-GST protein: TRIB3-GST protein (Sino, China) (protein, left off: GST, end not stated, kept) MRATPLAAPAGSLSRKKRLELDDNLDTERPVQKRARSGPQPRLPPCLLPLSPPTAPDRATAVATASRLGPYVLLEPEEGGRAYQALHCPTGTEYTCKVYPVQEALAVLEPYARLPPHKHVARPTEVLAGTQLLYAFFTRTHGDMHSLVRSRHRIPEPEAAVLFRQMATALAHCHQHGLVLRDLKLCRFVFADRERKKLVLENLEDSCVLTGPDDSLWDKHACPAYVGPEILSSRASYSGKAADVWSLGVALFTMLAGHYPFQDSEPVLLFGKIRRGAYALPAGLSAPARCLVRCLLRREPAERLTATGILLHPWLRQDPMPLAPTRSHLWEAAQVVPDGLGLDEAREEEGDREVVLYG", "values": [
      {"measurement": "AKT1-FOXO1 interaction", "setting": "[5]", "result": "inhibited the AKT1-FOXO1 interaction by binding to AKT1"}
    ]}
  ]
}
